This passage reports IC50 and EC50 results from US11124497B1, “Inhibitors of cysteine proteases and methods of use thereof” (priority 2020, dated 2021).

Assay [1] concerns the target 229E mPRO (Human coronavirus 229E (HCoV-229E), UniProt P0C6X1). As to the kind of experiment: 229E mPRO enzymatic assay. Type of assay: biochemical, Human Coronavirus (HCov) 229E.
Procedure: Compounds were assayed using standard methods to assess compound activity and IC50. […] The assay buffer contained 20 mM of Tris-HCl (pH 7.3), 100 mM of NaCl, 1 mM of EDTA, 5 mM of TCEP and 0.1% BSA.
The compounds were added to an assay plate.
IC50 values of compounds were calculated with the GraphPad Prism software using the nonlinear regression model of log(inhibitor) vs. response—Variable slope (four parameters). The inhibition activity was calculated using the formula below, IC50 values was calculated using the Inhibition % data. Inhibition %=[(Sample−Average ZPE)/(Average HPE−Average ZPE)]*100%^# • ^#HEP: Hundred percent effect controls. […] Containing enzyme+substrate, no compound. • Sample: Compound activity testing wells. Containing compound+enzyme+substrate. • BG: Compound background control wells. Containing compound+substrate, no enzyme.
The subject of assay [2] is HCoV 229E. As to the kind of experiment: HCoV 229E cytopathic effect (CPE) assay. Type of assay: cell-based, Human Coronavirus (HCov) 229E. As to conditions: unidentified human coronavirus, CellTiter Glo, read-out: 229 ECPE EC50. The protocol: Compounds were assayed using standard methods against multiple coronaviral strains, including HCoV 229E and OC43 strains. The antiviral activity of compounds was calculated based on the protection of the virus-induced CPE at each concentration normalized by the virus control.
Cytopathic effect (CPE) was measured by CellTiter Glo following the manufacturer's manual. The antiviral activity of compounds was calculated based on the protection of the virus-induced CPE at each concentration normalized by the virus control.

Where two headings read alike, the source gives them in different places. Bounds are passed on as bounds.

Chain of 229E mPRO (P0C6X1 2966-3267 limits assumed): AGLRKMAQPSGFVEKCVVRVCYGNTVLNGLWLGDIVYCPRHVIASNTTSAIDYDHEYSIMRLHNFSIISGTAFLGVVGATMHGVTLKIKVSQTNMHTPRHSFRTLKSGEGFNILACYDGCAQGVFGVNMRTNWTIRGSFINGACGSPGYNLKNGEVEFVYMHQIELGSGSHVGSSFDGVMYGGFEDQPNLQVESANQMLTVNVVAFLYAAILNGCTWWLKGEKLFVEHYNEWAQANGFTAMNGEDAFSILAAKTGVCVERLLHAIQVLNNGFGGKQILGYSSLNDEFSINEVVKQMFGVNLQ

Regarding `COc1cccc2[nH]c(C(=O)N[C@@H](CC(C)C)C(=O)N[C@H](C#N)Cc3n[nH]c4ccccc34)cc12` (mixture of isomers) [Compound 245], the IC50 in assay [1] (read-out: 229E mPRO IC50) is > 30 µM. As to `COc1cccc2[nH]c(C(=O)N[C@@H](CC(C)C)C(=O)N[C@@H](C[C@@H]3CCNC3=O)C(C#N)N3CCCC3)cc12` (single isomer, unassigned) [331 (Isomer 1)], the concentration giving a half-maximal response (EC50) in assay [2] was < 22 µM. Further, in assay [1] (read-out: 229E mPRO IC50), the 50% inhibitory concentration (IC50) was < 22 µM. Take `COc1cccc2[nH]c(C(=O)N[C@@H](CC(C)C)C(=O)N[C@@H](C[C@@H]3CCNC3=O)C(C#N)N3CCCC3)cc12` (single isomer, unassigned) [331 (Isomer 2)]: the IC50 in assay [1] (read-out: 229E mPRO IC50) was < 22 µM. `CC(C)C[C@H](NC(=O)CC(C)(O)c1ccc(Cl)cc1)C(=O)N[C@H](C#N)C[C@@H]1CCNC1=O` (single isomer, unassigned) [365 (Isomer 1)]: the IC50 in assay [1] (229E mPRO IC50 (μM)) was 2 to 10 µM. Take `COc1cccc2[nH]c(C(=O)N3CC(C45CC(C4)C5)C[C@H]3C(=O)N[C@H](C#N)C[C@@H]3CCNC3=O)cc12` (single isomer, unassigned) [385 (Isomer 1)]: the concentration for a half-maximal effect (EC50) in assay [2] was < 22 µM. Besides, in assay [1] (read-out: 229E mPRO IC50), the IC50 is < 22 µM.

`COc1cccc2[nH]c(C(=O)N3CC(C45CC(C4)C5)C[C@H]3C(=O)N[C@H](C#N)C[C@@H]3CCNC3=O)cc12` (single isomer, unassigned) [385 (Isomer 2)]: the IC50 in assay [1] (read-out: 229E mPRO IC50) is < 22 µM. As for `CC(C)(C)OC(=O)N1CCCCC12CCN([C@@H](CC1CC1)C(=O)N[C@H](C#N)C[C@@H]1CCNC1=O)C2=O` (single isomer, unassigned) [473 (Isomer 1)], the IC50 in assay [1] (read-out: 229E mPRO IC50) was > 30 µM. For the compound `N#C[C@H](C[C@@H]1CCCNC1=O)NC(=O)[C@H](CC1CC1)NC(=O)c1cc2cccc(Cl)c2[nH]1` (single isomer, unassigned) [639 (Isomer 1)], the half-maximal effective concentration (EC50) in assay [2] was < 22 µM. Moreover, in assay [1] (read-out: 229E mPRO IC50), the 50% inhibitory concentration (IC50) is < 22 µM. In the case of `COc1cccc2[nH]c(C(=O)N[C@@H](CC(C)C)C(=O)N[C@H](C#N)C[C@@H]3CCNC3=O)cc12` [Compound 101, N-[(1S)-1-[[(1S)-1-cyano-2-[(3S)-2-oxopyrrolidin-3-yl]ethyl]carbamoyl]-3-methyl-butyl]-4-methoxy-1H-indole-2-carboxamide], the EC50 in assay [2] was < 22 µM. In assay [1] (read-out: 229E mPRO IC50), the IC50 is < 22 µM. Regarding `COc1cccc2[nH]c(C(=O)N[C@H](C(=O)N[C@H](C#N)C[C@@H]3CCNC3=O)[C@@H]3Cc4ccccc4O3)cc12` [Compound 147], the half-maximal inhibitory concentration (IC50) in assay [1] (read-out: 229E mPRO IC50) is > 30 µM. As to `COc1cccc2[nH]c(C(=O)N[C@H](C(=O)N[C@H](C#N)C[C@@H]3CCNC3=O)C3Cc4ccccc4C3)cc12` [Compound 149, N-[(1S)-2-[[(1S)-1-cyano-2-[(3S)-2-oxopyrrolidin-3-yl]ethyl]amino]-1-indan-2-yl-2-oxo-ethyl]-4-methoxy-1H-indole-2-carboxamide], the EC50 in assay [2] was in the range of 2 to 10 µM. Moreover, the IC50 in assay [1] (read-out: 229E mPRO IC50) was 2 to 10 µM. Take `COc1cccc2[nH]c(C(=O)N[C@@H](Cc3cccc(Cl)c3)C(=O)N[C@H](C#N)C[C@@H]3CCNC3=O)cc12` [Compound 153]: the IC50 in assay [1] (read-out: 229E mPRO IC50) is 10 to 30 µM. On the same count and under the same terms, with `COc1cccc2[nH]c(C(=O)N3C[C@H](OC(C)(C)C)C[C@H]3C(=O)N[C@H](C#N)C[C@@H]3CCNC3=O)cc12` [Compound 165, (2S,4R)-4-(tert-butoxy)-N—((S)-1-cyano-2-((S)-2-oxopyrrolidin-3-yl)ethyl)-1-(4-methoxy-1H-indole-2-carbonyl)pyrrolidine-2-carboxamide] the figure was > 30 µM; with `COc1cccc2[nH]c(C(=O)N3C[C@H](C4CCCCC4)C[C@H]3C(=O)N[C@H](C#N)C[C@@H]3CCNC3=O)cc12` [Compound 167, (2S,4S)—N—((S)-1-cyano-2-((S)-2-oxopyrrolidin-3-yl)ethyl)-4-cyclohexyl-1-(4-methoxy-1H-indole-2-carbonyl)pyrrolidine-2-carboxamide], 2 to 10 µM; with `COc1cccc2[nH]c(C(=O)N3CCC4(CC4)C[C@H]3C(=O)N[C@H](C#N)C[C@@H]3CCNC3=O)cc12` [Compound 183, (S)—N—((S)-1-cyano-2-((S)-2-oxopyrrolidin-3-yl)ethyl)-6-(4-methoxy-1H-indole-2-carbonyl)-6-azaspiro[2.5]octane-5-carboxamide], 2 to 10 µM. Still for that read-out and setting: under `N#C[C@H](C[C@@H]1CCNC1=O)NC(=O)[C@@H]1C[C@@H](c2ccccc2)CN1C(=O)/C=C/c1ccc(Cl)cc1F` [Compound 209, (2S,4S)-1-((E)-3-(4-chloro-2-fluorophenyl)acryloyl)-N—((S)-1-cyano-2-((S)-2-oxopyrrolidin-3-yl)ethyl)-4-phenylpyrrolidine-2-carboxamide] stands 10 to 30 µM; under `N#C[C@H](C[C@@H]1CCNC1=O)NC(=O)[C@@H]1CCCNN1C(=O)/C=C/c1ccc(Cl)cc1F` [Compound 213, (S)-2-((E)-3-(4-chloro-2-fluorophenyl)acryloyl)-N—((S)-1-cyano-2-((S)-2-oxopyrrolidin-3-yl)ethyl)hexahydropyridazine-3-carboxamide], > 30 µM; under `CN1CCCC[C@]12CCN([C@@H](CC1CC1)C(=O)N[C@H](C#N)C[C@@H]1CCNC1=O)C2=O` [Compound 273C], 2 to 10 µM. In the case of `CCCN1C(=N)C([C@H](C[C@@H]2CCNC2=O)NC(=O)[C@H](CC(C)C)NC(=O)c2cc3c(OC)cccc3[nH]2)OC1=O` (some centres unmarked) [Compound 355], the EC50 in assay [2] is > 30 µM. Also, the IC50 in assay [1] (read-out: 229E mPRO IC50) lay in the range of 2 to 10 µM. Regarding `COc1cccc2[nH]c(C(=O)N[C@@H](CC(C)C)C(=O)N[C@@H](C[C@@H]3CCNC3=O)C3OC(=O)N(C(C)C)C3=N)cc12` (some centres unmarked) [Compound 357], the half-inhibitory concentration (IC50) in assay [1] (read-out: 229E mPRO IC50) was > 30 µM.

As to `COc1cccc2[nH]c(C(=O)N[C@@H](CC(C)C)C(=O)N[C@@H](C[C@@H]3CCNC3=O)C3OC(=O)N(c4ccccc4)C3=N)cc12` (some centres unmarked) [Compound 359], the 50% inhibitory concentration (IC50) in assay [1] (read-out: 229E mPRO IC50) was in the range of 10 to 30 µM. With `CCCOc1cccc2[nH]c(C(=O)N[C@@H](CC(C)C)C(=O)N[C@H](C#N)C[C@@H]3CCNC3=O)cc12` [Compound 379], the EC50 in assay [2] is < 22 µM. The 50% inhibitory concentration (IC50) in assay [1] (read-out: 229E mPRO IC50) was < 22 µM. Turning to `COc1cccc2[nH]c(C(=O)N3CC4(CCOCC4)CC3C(=O)N[C@H](C#N)C[C@@H]3CCNC3=O)cc12` (some centres unmarked) [Compound 387], the half-inhibitory concentration (IC50) in assay [1] (read-out: 229E mPRO IC50) is > 30 µM.

`COc1cccc2[nH]c(C(=O)N3C[C@H](OC)C[C@H]3C(=O)N[C@H](C#N)C[C@@H]3CCNC3=O)cc12` [Compound 407]: the EC50 in assay [2] was < 22 µM. Besides, the IC50 in assay [1] (read-out: 229E mPRO IC50) is < 22 µM.

Turning to `N#C[C@H](C[C@@H]1CCNC1=O)NC(=O)[C@H](CC1CC1)N1CCC2(CCCN2)C1=O` (some centres unmarked) [Compound 471], the half-inhibitory concentration (IC50) in assay [1] (read-out: 229E mPRO IC50) was in the range of 10 to 30 µM. As for `N#C[C@H](C[C@@H]1CCNC1=O)NC(=O)[C@@H]1CS[C@H]2CC[C@H](NC(=O)OCC3c4ccccc4-c4ccccc43)C(=O)N21` [Compound 477], the IC50 in assay [1] (read-out: 229E mPRO IC50) was > 30 µM. Consider `CC(C)C[C@H](NC(=O)c1cc2c(OC(F)F)cccc2[nH]1)C(=O)N[C@H](C#N)C[C@@H]1CCNC1=O` [Compound 509], for which, in assay [2], the 50% effective concentration (EC50) was < 22 µM. Also, in assay [1] (read-out: 229E mPRO IC50), the IC50 is < 22 µM.

Consider `N#C[C@H](C[C@@H]1CCNC1=O)NC(=O)[C@H](CC1CC1)NC(=O)c1cc2cc(Cl)ccc2[nH]1` [Compound 519], for which, in assay [2], the concentration giving a half-maximal response (EC50) is < 22 µM. The 50% inhibitory concentration (IC50) in assay [1] (read-out: 229E mPRO IC50) was < 22 µM. Consider `N#C[C@H](C[C@@H]1CCNC1=O)NC(=O)[C@H](CC1CC1)NC(=O)c1cc2cccc(Cl)c2[nH]1` [Compound 531, 7-chloro-N-[(1S)-2-[[(1S)-1-cyano-2-[(3S)-2-oxopyrrolidin-3-yl]ethyl]amino]-1-(cyclopropylmethyl)-2-oxo-ethyl]-1H-indole-2-carboxamide], for which the concentration for a half-maximal effect (EC50) in assay [2] was < 22 µM. Also, the concentration for half-maximal inhibition (IC50) in assay [1] (read-out: 229E mPRO IC50) is < 22 µM. On to `CCO[C@@H]1C[C@@H](C(=O)N[C@H](C#N)C[C@@H]2CCNC2=O)N(C(=O)c2cc3c(OC)cccc3[nH]2)C1` [Compound 535], for which the IC50 in assay [1] (read-out: 229E mPRO IC50) was > 30 µM.

`COc1cccc2[nH]c(C(=O)N[C@@H](CC3CCC3)C(=O)N[C@H](C#N)C[C@@H]3CCNC3=O)cc12` [Compound 577]: the EC50 in assay [2] was < 22 µM. Also, the IC50 in assay [1] (read-out: 229E mPRO IC50) is < 22 µM. Turning to `CCCNC(=O)OC(C#N)[C@H](C[C@@H]1CCNC1=O)NC(=O)[C@H](CC(C)C)NC(=O)c1cc2c(OC)cccc2[nH]1` (some centres unmarked) [Compound 581], the IC50 in assay [1] (read-out: 229E mPRO IC50) was > 30 µM. With `COc1cccc2[nH]c(C(=O)N[C@@H](CC(C)C)C(=O)N[C@@H](C[C@@H]3CCNC3=O)C(C#N)OC(=O)NC(C)C)cc12` (some centres unmarked) [Compound 583], the IC50 in assay [1] (read-out: 229E mPRO IC50) was > 30 µM. Take `CC(C)C[C@H](NC(=O)/C=C/c1ccc(Cl)cc1F)C(=O)N[C@H](C#N)C[C@@H]1CCNC1=O` [Compound 598]: the EC50 in assay [2] was < 22 µM. The IC50 in assay [1] (read-out: 229E mPRO IC50) fell in the range of 2 to 10 µM. `CC(C)(C)C[C@H](NC(=O)c1cc2cccc(Cl)c2[nH]1)C(=O)N[C@H](C#N)C[C@@H]1CCCNC1=O` [Compound 721, 7-chloro-N—((S)-1-(((S)-1-cyano-2-((S)-2-oxopiperidin-3-yl)ethyl)amino)-4,4-dimethyl-1-oxopentan-2-yl)-1H-indole-2-carboxamide]: the concentration for a half-maximal effect (EC50) in assay [2] was < 22 µM. The same measure, in the same setting: under `CC(C)(C)C[C@H](NC(=O)c1cc2ccc(Cl)c(Cl)c2[nH]1)C(=O)N[C@H](C#N)C[C@@H]1CCCNC1=O` [Compound 725] stands < 22 µM; under `CC(C)(C)C[C@H](NC(=O)c1cc2c(Cl)ccc(Cl)c2[nH]1)C(=O)N[C@H](C#N)C[C@@H]1CCCNC1=O` [Compound 735], < 22 µM; under `COc1ccc(Cl)c2[nH]c(C(=O)N[C@@H](CC(C)(C)C)C(=O)N[C@H](C#N)C[C@@H]3CCCNC3=O)cc12` [Compound 737], < 22 µM. For the compound `COc1c(Cl)ccc2[nH]c(C(=O)N[C@@H](CC(C)(C)C)C(=O)N[C@H](C#N)C[C@@H]3CCCNC3=O)cc12` [Compound 739], the EC50 in assay [2] was < 22 µM. On to `CC(C)(C)C[C@H](NC(=O)c1cc2ccc(Cl)cc2[nH]1)C(=O)N[C@H](C#N)C[C@@H]1CCCNC1=O` [Compound 745], for which the EC50 in assay [2] was < 22 µM.
